# Paper PMC6982876, “Synthesis of Novel Benzodifuranyl; 1,3,5-Triazines; 1,3,5-Oxadiazepines; and Thiazolopyrimidines Derived from Visnaginone and Khellinone as Anti-Inflammatory and Analgesic Agents” (Molecules, 2020)
# Marks after values point to notes of the source that are not given here.
# Experiments:
# [1] = tested on: acetic acid-induced writhing in mice; experiment: Acetic acid-induced writhing test (analgesic activity); type: in vivo; conditions: 10 mg/kg p.o.; for Analgesic Activity (% protection): writhing test; for Writhing Number in 20 min (Mean ± SEM): acetic acid 1 h after dosing
# Description: The analgesic activity of the compounds was performed using the writhing test as described by Gawade et al.. Mice weight ranged from 25 to 30 g. Then, mice were divided into 18 different groups, each containing five animals. The animals fasted for 8 h before the experiment. Administration of the compounds (10 mg/kg, p.o.) was performed orally. Equal doses of diclofenac as the reference drug and saline as a negative control were also administrated orally. Writhing was induced one hour after compound administration by using 0.1 mL of 1% glacial acetic acid at a volume of 0.1 mL/10 g body weight. The number of writhing responses (stretching of the abdomen, extension of hind limbs, twisting of the trunk, and elongation of the body) observed was counted for 20 min. The protection percentile against acetic acid-induced writhing was calculated according to the following formula: (1) Analgesic activity (%) =n−n′/n×100* where n is the mean number of writhes of the control group, and n’ is the mean number of writhes of the tested compound group.
# [2] = target: T1, human recombinant COX-2 (Homo sapiens, UniProt P35354); experiment: In vitro COX inhibitor screening assay (EIA kit, Cayman), COX-2; type: biochemical; conditions: for COX2 (SI) selectivity index: COX-1 IC50 / COX-2 IC50; for IC50: COX-2, mean of two determinations, enzyme kit, read-out: COX2 IC50
# T1 construct: purchased Cayman Chemical, Ann Arbor, MI, USA 560131
# T1 sequence (P35354 18-604): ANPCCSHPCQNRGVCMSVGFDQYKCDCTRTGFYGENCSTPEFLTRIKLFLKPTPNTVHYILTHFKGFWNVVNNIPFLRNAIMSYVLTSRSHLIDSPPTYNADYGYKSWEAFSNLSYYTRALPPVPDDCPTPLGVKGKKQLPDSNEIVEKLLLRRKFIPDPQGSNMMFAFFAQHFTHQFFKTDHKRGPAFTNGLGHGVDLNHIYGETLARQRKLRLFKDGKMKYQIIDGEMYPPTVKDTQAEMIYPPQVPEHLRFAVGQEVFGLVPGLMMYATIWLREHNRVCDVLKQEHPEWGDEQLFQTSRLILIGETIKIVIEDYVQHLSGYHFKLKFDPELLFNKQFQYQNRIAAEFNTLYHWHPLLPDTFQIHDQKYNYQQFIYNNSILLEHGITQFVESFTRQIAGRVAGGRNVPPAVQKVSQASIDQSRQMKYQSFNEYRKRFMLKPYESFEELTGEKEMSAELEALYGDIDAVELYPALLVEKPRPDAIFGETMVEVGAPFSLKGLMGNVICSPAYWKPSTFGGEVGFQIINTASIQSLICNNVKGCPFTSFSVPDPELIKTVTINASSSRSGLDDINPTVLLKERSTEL
# Description: (§1) Furthermore, the selectivity index for COX-2 (COX-1 IC50 / COX-2 IC50) was calculated for the compounds.
# [3] = tested on: carrageenan-induced paw edema in rats; experiment: Carrageenan-induced paw edema (anti-inflammatory activity); type: in vivo; conditions: 10 mg/kg oral; for % Change in Paw Height (Mean ± SEM): n = 5
# Description: Albino rats (150–180 g) were used. The rats were divided into 11 experimental groups of five rats each. One hour after oral administration of the compounds (10 mg/kg), 0.1 mL of 1% carrageenan solution was injected in the left hind paw of each animal. Rat paw volumes were measured with a digital caliber plethysmometer (UGO Basile, Varese, Italy) used to measure inflammation height at 0, 1, 2, and 3 h after carrageenan injection. The percentage increase in inflammation in the left hind paw, in comparison to the uninjected right hind paw, was determined, calculated, and expressed as the amount of inflammation. […] The anti-inflammatory activity of the selected analgesic compounds after 3 h was expressed as percentage inhibition of edema, which was calculated according to the following equation: (2) Inhibition of edema (%) =Vcont−Vtest/Vcont×100* where V cont is the edema volume in the control group, and V test is the edema volume in the group of the screened compound.
# [4] = target: T2, ovine COX-1 (Ovis aries, UniProt P05979); experiment: In vitro COX inhibitor screening assay (EIA kit, Cayman), COX-1; type: biochemical; conditions: mean of two determinations, enzyme kit, read-out: COX1 IC50
# T2 construct: purchased Cayman Chemical, Ann Arbor, MI, USA 560131
# T2 sequence (P05979 25-600): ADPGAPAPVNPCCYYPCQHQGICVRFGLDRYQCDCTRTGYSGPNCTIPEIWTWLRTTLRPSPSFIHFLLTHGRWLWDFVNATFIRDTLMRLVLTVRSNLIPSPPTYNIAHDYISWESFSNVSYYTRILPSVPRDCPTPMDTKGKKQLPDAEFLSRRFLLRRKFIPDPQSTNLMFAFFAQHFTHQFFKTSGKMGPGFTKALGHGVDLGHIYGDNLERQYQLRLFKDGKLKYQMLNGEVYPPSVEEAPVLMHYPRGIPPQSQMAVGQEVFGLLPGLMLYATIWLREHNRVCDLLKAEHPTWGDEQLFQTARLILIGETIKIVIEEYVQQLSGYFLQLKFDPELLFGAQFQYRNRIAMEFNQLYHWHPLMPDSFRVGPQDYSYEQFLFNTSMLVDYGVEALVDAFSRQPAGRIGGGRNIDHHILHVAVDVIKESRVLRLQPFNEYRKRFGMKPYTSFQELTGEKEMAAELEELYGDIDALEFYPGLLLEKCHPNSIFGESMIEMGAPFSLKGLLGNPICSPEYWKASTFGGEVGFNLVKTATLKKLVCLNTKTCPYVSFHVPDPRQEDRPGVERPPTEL
# Description: as §1
Structure (SMILES),melting point,COX2 (SI) selectivity index [2],IC50 [2],IC50 [4],Analgesic Activity (% protection) ([1]; n = 5),% Change in Paw Height (Mean ± SEM) ([3]; 2 hr after carrageenan),% Change in Paw Height (Mean ± SEM) ([3]; 3 hr after carrageenan),Writhing Number in 20 min (Mean ± SEM) ([1]; n = 5),% Change in Paw Height (Mean ± SEM) ([3]; 1 hr after carrageenan),Anti-Inflammatory Activity (% Inhibition of Edema) ([3]; 3 hr after carrageenan),"Analgesic Activity (% protection) ([1]; n = 5, 10 mg/kg)","Analgesic Activity (% protection) ([1]; n = 5, listed as sodium diclofenac, 10 mg/kg)"
"COc1c(C(C)=O)c(OCC(=O)Nc2cc(=O)[nH]c(=S)[nH]2)cc2occc12 [Compound 4a, 2-((5-acetyl-4-methoxybenzofuran-6-yl)oxy)-N-(6-oxo-2-thioxo-1,2,3,6-tetrahydropyrimidin-4-yl) acetamide]",170 to 172 °C,41,460 nM,18.8 µM,18 ± 1.20%,0.40 ± 0.02 ^a %,0.49 ± 0.02 ^a %,,,,,
"COc1c(C(C)=O)c(OCC(=O)Nc2cc(=O)[nH]c(=S)[nH]2)c(OC)c2occc12 [Compound 4b, 2-((5-acetyl-4,7-dimethoxybenzofuran-6-yl)oxy)-N-(6-oxo-2-thioxo-1,2,3,6-tetrahydropyrimidin-4-yl) acetamide]",186 to 188 °C,45,411 nM,18.5 µM,19 ± 1.30%,0.38 ± 0.03 ^a %,0.47 ± 0.01 ^a %,"56 ± 1.2 ^a,b",0.47 ± 0.04 ^a %,26%,,
"COc1c2ccoc2cc2oc(C(=O)Nc3cc(=O)[nH]c(=S)[nH]3)c(C)c12 [Compound 5a, 4-methoxy-3-methyl-N-(6-oxo-2-thioxo-1,2,3,6-tetrahydropyrimidin-4-yl) benzo [1,2-b: 5,4-b`] difuran-2-carboxamide]",245 to 247 °C,48,375 nM,18.1 µM,21 ± 2.10%,0.36 ± 0.02 ^a %,0.46 ± 0.02 ^a %,"54 ± 1.6 ^a,b",0.45 ± 0.03 ^a %,28%,,
"COc1c2occc2c(OC)c2c(C)c(C(=O)Nc3cc(=O)[nH]c(=S)[nH]3)oc12 [Compound 5b, 4,8-dimethoxy-3-methyl-N-(6-oxo-2-thioxo-1,2,3,6-tetrahydropyrimidin-4-yl) benzo [1,2-b: 5,4-b`] difuran-2-carboxamide]",266 to 268 °C,50,360 nM,17.9 µM,23 ± 0.70%,0.34 ± 0.01 ^a %,0.44 ± 0.03 ^a %,"52 ± 1.4 ^a,b",0.42 ± 0.04 ^a %,30%,,
"COc1c2ccoc2cc2oc(C(=O)Nc3cc(=O)[nH]c(SCC(=O)O)n3)c(C)c12 [Compound 6a, 2-((4-(4-methoxy-3-methylbenzo [1,2-b: 5,4-b`]difuran-2-carboxamido)-6-oxo-1,6-dihydropyrimidin-2-yl)thio) acetic acid]",278 to 280 °C,51,345 nM,17.5 µM,25 ± 0.50%,0.32 ± 0.02 ^a %,0.41 ± 0.02 ^a %,"50 ± 1.6 ^a,b",0.39 ± 0.01 ^a %,35%,,
"O=C(O)Cc1ccccc1Nc1c(Cl)cccc1Cl [Diclofenac, reference compound]",,,,,,0.13 ± 0.02 ^a %,0.20 ± 0.01 ^a %,25 ± 1.2 ^a,,63%,51 ± 1.15 ^a %,51%

# The remaining compounds from weak to strong by IC50 [2], led by results:
melting point,COX2 (SI) selectivity index [2],IC50 [2],IC50 [4],Structure (SMILES),Analgesic Activity (% protection) ([1]; n = 5),% Change in Paw Height (Mean ± SEM) ([3]; 2 hr after carrageenan),% Change in Paw Height (Mean ± SEM) ([3]; 3 hr after carrageenan),Writhing Number in 20 min (Mean ± SEM) ([1]; n = 5),% Change in Paw Height (Mean ± SEM) ([3]; 1 hr after carrageenan),Anti-Inflammatory Activity (% Inhibition of Edema) ([3]; 3 hr after carrageenan),"Analgesic Activity (% protection) ([1]; n = 5, 10 mg/kg)","Analgesic Activity (% protection) ([1]; n = 5, listed as sodium diclofenac, 10 mg/kg)"
293 to 295 °C,55,311 nM,17.1 µM,"COc1c2occc2c(OC)c2c(C)c(C(=O)Nc3cc(=O)[nH]c(SCC(=O)O)n3)oc12 [Compound 6b, 2-((4-(4,8-dimethoxy-3-methylbenzo [1,2-b: 5,4-b`]difuran-2-carboxamido)-6-oxo-1,6-dihydropyrimidin-2-yl)thio) acetic acid]",26 ± 0.80%,0.31 ± 0.04 ^a %,0.39 ± 0.01 ^a %,"49 ± 1.2 ^a,b",0.38 ± 0.03 ^a %,38%,,
308 to 310 °C,79,101 nM,7.95 µM,"COc1c2ccoc2cc2oc(C(=O)Nc3cc(=O)n4c(n3)SCC4=O)c(C)c12 [Compound 7a, N-(3,5-dioxo-2,3-dihydro-5H-thiazolo [3,2-a]pyrimidin-7-yl)-4-methoxy-3-methylbenzo [1,2-b: 5,4-b`] difuran-2-carboxamide]",33 ± 1.70%,0.26 ± 0.02 ^a %,0.30 ± 0.02 ^a %,"42 ± 1.8 ^a,b",0.31 ± 0.01 ^a %,50%,,
327 to 329 °C,80,90 nM,7.18 µM,"COc1c2occc2c(OC)c2c(C)c(C(=O)Nc3cc(=O)n4c(n3)SCC4=O)oc12 [Compound 7b, N-(3,5-dioxo-2,3-dihydro-5H-thiazolo[3,2-a]pyrimidin-7-yl)-4,8-dimethoxy-3-methylbenzo [1,2-b:5,4-b`]difuran-2-carboxamide]",35 ± 1.14%,0.25 ± 0.01 ^a %,0.29 ± 0.01 ^a %,,0.30 ± 0.02 ^a %,52%,,
